Laboratory results from ChEMBL document CHEMBL4052648, “Synthesis and evaluation of c-di-4'-thioAMP as an artificial ligand for c-di-AMP riboswitch” (Bioorg Med Chem, 2017).

Tests used:
[1] = Drug metabolism assessed as recombinant Bacillus subtilis YybT-mediated compound degradation by measuring retention time at 100 uM by reversed-phase HPLC analysis; format: ADME
[2] = Binding affinity to Bacillus substilis 5'-32p-labelled 165 nucleotide RNA assessed as reduction in RNA cleavage measured within 40 hrs by PAGE analysis; parameters: species or system Bacillus subtilis; settings: read-out: Kd(app)
[3] = tested on: YybT; test: Drug metabolism assessed as recombinant Bacillus subtilis YybT-mediated compound hydrolysis by measuring half life at 100 uM by reversed-phase HPLC method; format: ADME; settings: recombinant Bacillus subtilis YybT enzyme
[4] = Drug metabolism assessed as recombinant Bacillus subtilis YybT-mediated ((2R,3S,4R,5R)-5-(6-amino-9H-purin-9-yl)-3-((((2R,3S,4R,5R)-5-(6-amino-9H-purin-9-yl)-3,4-dihydroxytetrahydrothiophen-2-yl)methoxy)(hydroxy)phosphoryloxy)-4-hydroxytetrahydrothiophen-2-yl)methyl dihydrogen phosphate formation at 100 uM by LRMS analysis; format: ADME
[5] = Drug level treated with c-di-4'-thioAMP assessed as recombinant Bacillus subtilis YybT-mediated metabolite formation at 100 uM by LRMS analysis; format: ADME

| Compound | Retention_time [1] | Kd [2] | half-life at 100 µM [3] | Drug metabolism [4] | Drug metabolism [5] |
| --- | --- | --- | --- | --- | --- |
| Nc1ncnc2c1ncn2[C@@H]1S[C@@H]2COP(=O)(O)O[C@H]3[C@@H](O)[C@H](n4cnc5c(N)ncnc54)S[C@@H]3COP(=O)(O)O[C@H]2[C@H]1O | 12.3 min | 34.8 µM | > 720 min | Metabolite_Detected |  |
| Nc1ncnc2c1ncn2[C@@H]1S[C@H](COP(=O)(O)O[C@H]2[C@@H](O)[C@H](n3cnc4c(N)ncnc43)S[C@@H]2COP(=O)(O)O)[C@@H](O)[C@H]1O |  |  |  |  | Metabolite_Detected |
| Nc1ncnc2c1ncn2[C@@H]1O[C@@H]2CO[P@@](=O)(O)O[C@H]3[C@@H](O)[C@H](n4cnc5c(N)ncnc54)O[C@@H]3CO[P@@](=O)(O)O[C@H]2[C@H]1O |  | ≤ 0.0033 µM | 60 min |  |  |
